Test results published in patent US20100184673A1, “USE OF PARATHYROID HORMONE ( 1-34 ) AS ANTI-HIV AGENT” (priority 2007, published 2010).

Assays:
HCMV strain AD169 = assay: HCMV plaque reduction assay in MRC-5 cells; conditions: for % plaque reduction: HCMV in MRC-5 cells, peptide 10 micrograms per ml, 7-10 days
MRC-5 cells = assay: in vitro; type: cell-based; conditions: human, 6 days
HIV-1IIIB = assay: HIV-1 antiviral assay (CPE reduction) in CEM-SS cells, MTS readout; conditions: for antiviral activity of positive control compounds (in words): assay validity statement; for % CPE reduction in HIV-1 infected CEM-SS cells: peptide 10 micrograms per ml, 6 days post-infection, MTS
HepG2-2.2.15 cells = assay: Cell viability of HepG2-2.2.15 cells (dye uptake assay); type: cell-based; conditions: peptide 10 micrograms per ml
Procedure: (§1) HepG2-2.2.15 cells were plated in 96-well microtiter plates. After 16-24 hours the confluent monolayer of HepG2-2.2.15 cells was washed and the medium was replaced with complete medium containing test peptide—10 micrograms per ml—in duplicate. Lamivudine (3TC) was used as the positive control, while media alone was added to the cells as a negative control (virus control). Three days later the culture medium was replaced with fresh medium containing the peptide. Six days following the initial administration of the peptide, the cell culture supernatants was collected, treated with pronase and DNAse and then used in a real-time quantitative TaqMan PCR assay. The PCR-amplified HBV DNA was detected in real-time by monitoring increases in fluorescence signals that result from the exonucleolytic degradation of a quenched fluorescence probe molecule that hybridizes to the mplified HBV DNA. For each PCR amplification, a standard curve was simultaneously generated using dilutions of purified HBV DNA. Antiviral activity was calculated from the reduction in HBV DNA levels (% virus control). A novel dye uptake assay was then employed to measure cell viability, which is used to calculate toxicity (% cell control).

A549 cells [1] = assay: Apoptosis prevention assay (C2 ceramide, Annexin-5); type: cell-based, Human; conditions: 30 min pretreatment, peptide 10 micrograms per ml
Source text: Human A549 cells (carcinomic human alveolar basal epithelial cells) were utilized in the experiments employing the Annexin-5 apoptosis assay. Annexin-5 is a member of a highly conserved protein family that binds acidic phospholipids in a calcium-dependent manner. […] Phosphatidylserine is translocated from the inner side of the plasma membrane to the outer layer when cells undergo death by apoptosis or cell necrosis and serves as a signal by which cell destined for death are recognized by phagocytes. A549 cells were pretreated for 30 min with test peptide—10 micrograms per ml—followed by the exposure to C2 ceramide. Ceramide mediates cell apoptosis through the activation of the mitogen activating protein kinase (MAPK) and the stress activated kinase (JNK/SAPK). C2 ceramide is a synthetic, membrane soluble analog of ceramide.

Pseudomonas aeruginosa = type: cell-based; conditions: 5 micrograms per ml
HUVEC = assay: Endothelial tube formation assay; type: cell-based, Human; conditions: peptide 10 micrograms per ml, 20 hours
Source text: […] control wes vehicle only. […] Raw data were expressed as average tubule lenghs in pixels±standard deviation.

MRSA = conditions: 5 micrograms per ml
Streptococcus pneumoniae = type: cell-based; conditions: 5 micrograms per ml
[2] = tested on: Human Peripheral Blood Mononuclear Cells (PBMC); assay: T cell proliferation assay (PHA, 3H-thymidine); type: cell-based; conditions: peptide 10 micrograms per ml
Procedure: (§2) Human Peripheral Blood Mononuclear Cells (PBMC) were obtained from normal human donors. The T cell proliferation was induced by stimulation of the cells with the T cell mitogen phytohemagglutinin (PHA), either in the absence (positive proliferation control), or in the presence of test peptide—10 micrograms per ml—to examine their effects on the T cell proliferating response. 10^5/well PBMC were plated in 96-well microtiter plates and assayed in duplicate with the peptide. Cell cultures were incubated at 37° C. for 3 days in a 5% CO2 incubator and were thereafter pulsed with 1microCi/well ^3H-thymidine for additional 12 hours of culture. At the end of incubation time, the plates were harvested and the cells counted by liquid scintillation for the incorporation of ^3H-thymidine as a measure of T cell proliferation.

[3] = tested on: macrophages prepared from PBMC; assay: TNF alpha production assay (LPS-stimulated macrophages, ELISA); type: cell-based, Human; conditions: peptide 10 micrograms per ml, lipopolysaccharide 200 ng/ml, overnight
Procedure: Human Peripheral Blood Mononuclear Cells (PBMC) were obtained from normal human donors. The macrophages were prepared by adherence of PBMC to the plastic wells of the plates. […] Not stimulated macrophages served as negative background control.
After overnight incubation, supernatants from the control and LPS-stimulated cultures were harvested and assayed for TNF alpha production employing a TNF alpha specific ELISA.

spleen cells = assay: Th1/Th2 cytokine profiling assay (Ovalbumin restimulated spleen cells, CBA kit); type: cell-based, Balb/c mice; conditions: peptide 10 micrograms per ml; Ovalbumin restimulation; 72 hours
Source text: The Balb/c mice (originated in 1923, it is a popular strain and is used in many different research disciplines. Also classified as an inbred from the production of 20 or more successive brother-sister matings, the Balb/c mouse is albino and small in size) were immunized on Days 1, 15, and 29 with Ovalbumin (Ovalbumin is the main protein found in egg white, commonly used to stimulate an immunological reaction in test animals) in PBS (5 micrograms/injection). On day 50, spleens of the mice were harvested (3 weeks after last boost with Ovalbumin). […] Thereafter, additional Ovalbumin was added to the cells at 10 micrograms/ml for in vitro restimulation of the cells. 72 hours later, cell supernatants were harvested and assayed using the Becton Dickinson Mouse Th1/Th2 Cytokine CBA Kit. This kit can be used to measure Interleukin-2 (IL-2), Interleukin-4 (IL-4), Interleukin-5 (IL-5), Interferon-γ (IFN-γ), and Tumor Necrosis Factor-α (TNF-α) protein levels in a single sample. The kit performance has been optimized for analysis of physiologically relevant concentrations (pg/ml levels) of specific cytokine proteins in tissue culture supernatants and serum samples.

[4] = Cell viability of HepG2-2.2.15 cells (dye uptake assay); type: cell-based; conditions: human, peptide 10 micrograms per ml
Procedure: as §1

in vitro [5] = conditions: human, CEM-SS cells
[6] = tested on: hepatitis B virus (HBV) ayw strain; assay: HBV replication assay in HepG2-2.2.15 cells (TaqMan PCR of secreted HBV DNA); type: cell-based; conditions: peptide 10 micrograms per ml; six days; HBV DNA in supernatant
Source text: HepG2-2.2.15 is a stable cell line containing the hepatitis B virus (HBV) ayw strain genome (ATCC Cat. No. CRL-11997). Antiviral compounds blocking any late step of viral replication such as transcription, translation, pregenome encapsidation, reverse transcription, particle assembly and release can be identified and characterized using this cell line. In this assay, an active compound will reduce the production of secreted HBV from cells, measured by utilizing real time quantitative PCR (TaqMan) assay to directly and accurately measure HBV DNA copies.
HepG2-2.2.15 cells were plated in 96-well microtiter plates. After 16-24 hours the confluent monolayer of HepG2-2.2.15 cells was washed and the medium was replaced with complete medium containing test peptide—10 micrograms per ml—in duplicate. […] Six days following the initial administration of the peptide, the cell culture supernatants was collected, treated with pronase and DNAse and then used in a real-time quantitative TaqMan PCR assay. The PCR-amplified HBV DNA was detected in real-time by monitoring increases in fluorescence signals that result from the exonucleolytic degradation of a quenched fluorescence probe molecule that hybridizes to the mplified HBV DNA. […] Antiviral activity was calculated from the reduction in HBV DNA levels (% virus control). […]

RAW 264.7 cells = assay: Phagocytosis assay (Fluorescein-labeled Escherichia coli); conditions: peptide 10 micrograms per ml, flow cytometry
[7] = tested on: Human Peripheral Blood Mononuclear Cells (PBMC); assay: B cell proliferation assay (SAC plus Interleukin-2, 3H-thymidine); type: cell-based; conditions: peptide 10 micrograms per ml
Procedure: as §2, with “The B” for “The T”, “the B” for “the T”, “mitogen Staphylococcus aureus Cowans I (SAC) plus Interleukin-2,” for “mitogen phytohemagglutinin (PHA),”, “cell” for “cell proliferating”, “of B” for “of T”

A549 cells [8] = assay: Apoptosis induction assay (Annexin-5); type: cell-based, Human; conditions: 24 hours, peptide 10 micrograms per ml
Source text: Human A549 cells (carcinomic human alveolar basal epithelial cells) were utilized in the experiments employing the Annexin-5 apoptosis assay. Annexin-5 is a member of a highly conserved protein family that binds acidic phospholipids in a calcium-dependent manner. […] Phosphatidylserine is translocated from the inner side of the plasma membrane to the outer layer when cells undergo death by apoptosis or cell necrosis and serves as a signal by which cell destined for death are recognized by phagocytes. Test peptide—10 micrograms per ml—were exposed for 24 hours to the A549 cells before they were analyzed for signs of apoptosis.

A549 cells [9] = assay: Propidium iodide cell cycle assay; type: cell-based, Human; conditions: 24 hours, peptide 10 micrograms per ml, FACS
Source text: Human A549 cells (carcinomic human alveolar basal epithelial cells) were utilized in the experiments employing the Propidium iodide cell cycle assay. The eukaryotic cell cycle is a series of events that take place in a cell leading to its replication. The regulation of the cell cycle involves steps crucial to the cell, including detecting and repairing genetic damage, and provision of various checks to prevent uncontrolled cell division. The molecular events that control the cell cycle are ordered and directional; that is, each process occurs in a sequential fashion.
Propidium iodide is an intercalating agent and a fluorescent molecule that can be used to stain DNA. Cells were incubated for 24 hours with test peptide—10 micrograms per ml—or left untreated. After that cells were trypsinized, suspended in medium+10% FCS, centrifuged (1000 rpm, 5 min), and the cell pellet resuspended in PBS (1 ml). The cells were pipetted into 2.5 ml absolute EtOH (final concentration approx. 70%) and incubated on ice for 15 min. Thereafter, cells were pelleted at 1500 rpm for 5 min and resuspended in Propidium iodide solution in PBS. After incubation for 40 min at 37° C., cells were analyzed in the FACS.

[10] = tested on: Primary Human endothelial cells (HUVEC); assay: Endothelial cell migration assay; type: cell-based; conditions: peptide 10 micrograms per ml, 22 hours
in vitro [11] = type: cell-based; conditions: human, MRC-5 cells

## Nc1nc(O)c2ncn(COC(CO)CO)c2n1 [Ganciclovir]
HCMV strain AD169
  % plaque reduction: 100%
HCMV strain AD169; assay validity statement
  antiviral activity of positive control compound (in words): expected levels of antiviral activity
MRC-5 cells
  % Cell viability: 100%

## CC(C)(C)NC(=O)[C@@H]1CN(Cc2cccnc2)CCN1C[C@@H](O)C[C@@H](Cc1ccccc1)C(=O)N[C@H]1c2ccccc2C[C@H]1O [Indinavir, indinavir]
HIV-1IIIB
  antiviral activity of positive control compounds (in words): expected levels of antiviral activity
  % CPE reduction in HIV-1 infected CEM-SS cells: 100%

## Nc1ccn([C@@H]2CS[C@H](CO)O2)c(=O)n1 [3TC, Lamivudine, reference compound]
HepG2-2.2.15 cells
  % Cell viability: 95.8%

## Cc1cn([C@H]2C[C@H](N=[N+]=[N-])[C@@H](CO)O2)c(=O)[nH]c1=O [AZT, zidovudine]
HIV-1IIIB
  antiviral activity of positive control compounds (in words): expected levels of antiviral activity
  % CPE reduction in HIV-1 infected CEM-SS cells: 99%

## CC[C@H](C)[C@H](NC(=O)[C@H](CCC(=O)O)NC(=O)[C@H](CO)NC(=O)[C@@H](NC(=O)[C@@H](N)CO)C(C)C)C(=O)N[C@@H](CCC(N)=O)C(=O)N[C@@H](CC(C)C)C(=O)N[C@@H](CCSC)C(=O)N[C@@H](Cc1cnc[nH]1)C(=O)N[C@@H](CC(N)=O)C(=O)N[C@@H](CC(C)C)C(=O)NCC(=O)N[C@@H](CCCCN)C(=O)N[C@@H](Cc1cnc[nH]1)C(=O)N[C@@H](CC(C)C)C(=O)N[C@@H](CC(N)=O)C(=O)N[C@@H](CO)C(=O)N[C@@H](CCSC)C(=O)N[C@@H](CCC(=O)O)C(=O)N[C@@H](CCCN=C(N)N)C(=O)N[C@H](C(=O)N[C@@H](CCC(=O)O)C(=O)N[C@@H](Cc1c[nH]c2ccccc12)C(=O)N[C@@H](CC(C)C)C(=O)N[C@@H](CCCN=C(N)N)C(=O)N[C@@H](CCCCN)C(=O)N[C@@H](CCCCN)C(=O)N[C@@H](CC(C)C)C(=O)N[C@@H](CCC(N)=O)C(=O)N[C@@H](CC(=O)O)C(=O)N[C@H](C(=O)N[C@@H](Cc1cnc[nH]1)C(=O)N[C@@H](CC(N)=O)C(=O)N[C@@H](Cc1ccccc1)C(=O)O)C(C)C)C(C)C [pTH (1-34)]
A549 cells [1]
  % prevention of ceramide induced apoptosis: 23.85%
Pseudomonas aeruginosa
  % inhibition: 0.0%
HUVEC
  % inhibition of tube formation: 28.0%
MRSA
  % inhibition: 0.0%
Streptococcus pneumoniae
  % inhibition: 0.0%
[2]
  % of PHA induced control: 110.2%
HCMV strain AD169
  % plaque reduction: 0.0%
HIV-1IIIB
  % CPE reduction in HIV-1 infected CEM-SS cells: 18.1%
[3]
  % of LPS induction: 117.1%
Spleen cells
  IFNγ spleen cells; TH1 response (% of control): 68.6 % of control
  IL-2 spleen cells (% of control): 180.4 % of control
  IL-4 spleen cells; TH2 response (% of control): 135.2 % of control
  IL-5 spleen cells; TH2 response (% of control): 85.9 % of control
  TNF-a spleen cells; TH1 response (% of control): 114.1 % of control
[4]
  viability at 144 h, 10 micrograms per ml: 100%
In vitro [5]
  viability at 10 micrograms per ml: 99.4%
[6]
  % inhibition of HBV replication in HEP G2 cells: 0.0%
RAW 264.7 cells
  % of control phagocytosis: 102.9%
[7]
  % of SAC/IL2 induced control: 106.0%
A549 cells [8]
  % of induction: 1.1%
A549 cells [9]
  Cell cycle analysis G0/G1: 59.1
  Cell cycle analysis G2/M: 7.5
  Cell cycle analysis S: 34.4
[10]
  % inhibition of migration: −4.0%
In vitro [11]
  viability at 144 h: 100%
